Measured values reported in paper PMC5810560 (Chemico-biological interactions, 2017).
Values joined by “and” are separate entries in the source; they are usually repeats but may differ in a detail not shown here. Identical values can stand only once.

How the values were obtained:
[1] = mice dosed with 80 mg/kg; ref Radic et al., 2012; cited from earlier work
[2] = test system: Human cerebral microvascular cells (HCMEC/D3); assay: Brain endothelial cell traversal; details: 100 μM in HBSS, apical to basolateral
[3] = RS194B plasma pharmacokinetics; details: for AUC0-t: t = 24 h
[4] = Renal clearance: urine radioactivity and HPLC of urine; details: for percent of the administered dose in urine: guinea pig
[5] = Parallel artificial membrane permeability assay; details: 100 μM in HBSS
p-gp (MDR1) = p-gp (MDR1) (Homo sapiens, UniProt P08183); assay: MDR1 efflux assessment in MDR1-MDCK and MDCK parent cells; details: MDR1-MDCK vs MDCK cells, 100 μM; NFR > 1 = possible p-gp substrate
[6] = RS194B biodistribution / brain penetration in perfused tissues; details: for Tissue level at Cmax, percent of administered dose, Brain / Tissue level at Cmax, percent of administered dose, Heart / Tissue level at Cmax, percent of administered dose, Kidney / Tissue level at Cmax, percent of administered dose, Liver / Tissue level at Cmax, percent of administered dose, Lung / Tissue level at Cmax, percent of administered dose, Spleen: total tissue weight
[7] = dose increase from 10 to 200 mg/kg (20-fold), IV
[8] = guinea pig plasma, single IM dose 50 mg/kg
[9] = guinea pig plasma, single IV dose 10 mg/kg
[10] = guinea pig plasma, single IV dose 50 mg/kg
[11] = guinea pig plasma, single IV dose 100 mg/kg
[12] = guinea pig plasma, single IV dose 200 mg/kg
[13] = guinea pig, after IV administration, post dose

Sequence of p-gp (MDR1) (P08183 whole entry, looked up, the tested form may be a part): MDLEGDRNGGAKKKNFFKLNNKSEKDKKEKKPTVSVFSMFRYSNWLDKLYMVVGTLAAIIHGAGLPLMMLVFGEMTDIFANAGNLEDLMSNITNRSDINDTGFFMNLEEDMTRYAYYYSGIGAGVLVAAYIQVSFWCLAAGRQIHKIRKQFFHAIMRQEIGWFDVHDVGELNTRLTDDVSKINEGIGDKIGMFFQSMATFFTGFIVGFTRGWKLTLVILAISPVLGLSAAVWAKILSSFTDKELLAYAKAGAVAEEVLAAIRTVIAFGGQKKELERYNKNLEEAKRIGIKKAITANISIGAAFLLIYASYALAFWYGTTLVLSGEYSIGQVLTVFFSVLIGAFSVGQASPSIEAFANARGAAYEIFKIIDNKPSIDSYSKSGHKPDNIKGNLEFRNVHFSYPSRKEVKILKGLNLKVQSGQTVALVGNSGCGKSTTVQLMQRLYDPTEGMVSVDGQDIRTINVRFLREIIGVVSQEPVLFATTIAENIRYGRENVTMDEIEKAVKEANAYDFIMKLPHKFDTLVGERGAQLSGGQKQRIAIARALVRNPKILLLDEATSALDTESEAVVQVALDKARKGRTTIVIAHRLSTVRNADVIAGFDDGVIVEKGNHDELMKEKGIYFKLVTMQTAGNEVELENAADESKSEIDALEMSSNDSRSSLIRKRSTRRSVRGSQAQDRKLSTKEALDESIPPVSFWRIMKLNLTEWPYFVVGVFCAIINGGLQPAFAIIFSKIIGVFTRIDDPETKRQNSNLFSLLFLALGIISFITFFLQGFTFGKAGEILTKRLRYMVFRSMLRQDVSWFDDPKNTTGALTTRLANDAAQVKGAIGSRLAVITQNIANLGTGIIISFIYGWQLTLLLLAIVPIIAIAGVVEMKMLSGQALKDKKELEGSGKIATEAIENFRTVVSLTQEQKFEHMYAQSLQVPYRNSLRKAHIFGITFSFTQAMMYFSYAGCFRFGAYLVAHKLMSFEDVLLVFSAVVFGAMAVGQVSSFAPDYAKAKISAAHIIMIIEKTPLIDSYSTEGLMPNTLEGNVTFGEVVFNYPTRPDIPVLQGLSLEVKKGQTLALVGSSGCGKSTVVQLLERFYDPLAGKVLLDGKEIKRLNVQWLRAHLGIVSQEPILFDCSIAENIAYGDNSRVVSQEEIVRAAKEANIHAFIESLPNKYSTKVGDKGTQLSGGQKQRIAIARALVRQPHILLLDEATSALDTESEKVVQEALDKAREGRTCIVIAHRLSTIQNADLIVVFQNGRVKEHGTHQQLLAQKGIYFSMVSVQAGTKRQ

## O=C(C=NO)NCCN1CCCCCC1 [RS194B]
[1]
  brain/plasma ratio: 0.3
[2]
  permeability across HCMEC/D3 monolayer relative to controls: permeability was improved over that of 2-PAM, but was lower than that of a known permeable compound
[3]; [7]
  increase in mean AUC0-t: 32 fold
  increase in mean C0: 25 fold
[3]; dose range 10-200 mg/kg IV
  power regression slope, AUC0-t vs dose: 1.13
  power regression slope, C0 vs dose: 1.09
[3]; guinea pig plasma, IM 50 mg/kg
  tmax: 0.5 h
[3]; guinea pig plasma, across four IV doses 10-200 mg/kg
  mean apparent distribution half-life (t1/2α), range: 0.78 to 1.5 h
[3]; [8]
  AUC0-inf: 78740 ± 3750 ng·h/mL
  C0: 24900 ± 1440 ng/mL
  CL: 10.697 ± 0.522 mL/min/kg
  T1/2;β: 8.53 ± 1.49 h
  Vd: 7.729 ± 1.08899 L/kg
  t1/2α: 0.87 ± 0.13 h
  AUC0-t: 73500 ± 2410 ng·h/mL
[3]; [9]
  AUC0-inf: 17530 ± 1350 ng·h/mL
  C0: 6230 ± 150 ng/mL
  CL: 9.8418 ± 0.8645 mL/min/kg
  T1/2;β: 10.41 ± 1.54 h
  Vd: 8.67515 ± 1.99977 L/kg
  t1/2α: 0.79 ± 0.07 h
  AUC0-t: 15270 ± 1230 ng·h/mL
[3]; [10]
  C0: 42770 ± 2500 ng/mL
  CL: 9.1108 ± 0.4573 mL/min/kg
  T1/2;β: 10.68 ± 1.94 h
  Vd: 8.37818 ± 1.44868 L/kg
  t1/2α: 1.03 ± 0.28 h
  AUC0-t: 83800 ± 4050 ng·h/mL
[3]; [11]
  AUC0-inf: 223600 ± 14560 ng·h/mL
  C0: 93180 ± 3400 ng/mL
  CL: 7.5982 ± 0.4475 mL/min/kg
  T1/2;β: 12.87 ± 2.16 h
  Vd: 8.32203 ± 1.44265 L/kg
  t1/2α: 0.78 ± 0.05 h
  AUC0-t: 188050 ± 11100 ng·h/mL
[3]; [12]
  AUC0-inf: 530830 ± 57860 ng·h/mL
  C0: 157660 ± 4340 ng/mL
  CL: 6.6752 ± 0.7335 mL/min/kg
  T1/2;β: 9.75 ± 1.83 h
  Vd: 5.80208 ± 1.32987 L/kg
  t1/2α: 1.50 ± 0.20 h
  AUC0-t: 488520 ± 63160 ng·h/mL
[3]; guinea pig, as summarised in abstract
  plasma t1/2: ~1 h
[4]; first 4 h post dose, three highest dose concentrations
  radioactivity recovered in the urine: over 60%
[4]; guinea pig urine, one radioactive peak matching RS194B standard
  metabolic stability (HPLC of 0-4 h urine): metabolically stable
[4]; IV 10 mg/kg, first 24 h
  percent of the administered dose in urine: 11-28%
[4]; IV 50 mg/kg, first 24 hr post dose
  percent of the administered dose in urine: 49-77%
[4]; IV 100 mg/kg, first 24 hr post dose
  percent of the administered dose in urine: 46-68%
[4]; IV 200 mg/kg, first 24 hr post dose
  percent of the administered dose in urine: 59-79%
[5]; five hours, 25°C, vs threshold for moderate permeability
  effective permeability (Peff), PAMPA: < 2 ×10⁻⁶ cm/s
[5]; vs 2-PAM and diazepam positive control
  PAMPA diffusion relative to controls: increased diffusion relative to the 2-PAM standard of care, rate of permeation was dramatically lower than the diazepam positive control
p-gp (MDR1)
  net flux ratio (NFR): ≤ 1
[6]; guinea pig, IM 50 mg/kg, 0.08 hr (brain Cmax)
  brain/ plasma: 0.058 and 0.06 ± 0.002
[6]; guinea pig, IM 50 mg/kg, 0.25 hr
  brain/ plasma: 0.04 ± 0.006
[6]; guinea pig, IM 50 mg/kg, 0.5 hr
  brain/ plasma: 0.03 ± 0.002
[6]; guinea pig, IM 50 mg/kg, 1 hr
  brain/ plasma: 0.02 ± 0.010
[6]; guinea pig, IM 50 mg/kg, 2 hr
  brain/ plasma: 0.02 ± 0.001
[6]; guinea pig, IM 50 mg/kg, 4 hr
  brain/ plasma: 0.06 ± 0.005
[6]; guinea pig, IM 50 mg/kg, 8 hr
  brain/ plasma: 0.08 ± 0.007
[6]; guinea pig, IM 50 mg/kg, 24 hr
  brain/ plasma: 0.19 ± 0.045
[6]; guinea pig, IM 50 mg/kg
  Tissue level at Cmax, percent of administered dose, Brain: 0.02 ± 0.005% of administered dose
  Tissue level at Cmax, percent of administered dose, Heart: 0.07 ± 0.02% of administered dose
  Tissue level at Cmax, percent of administered dose, Kidney: 2.87 ± 0.48% of administered dose
  Tissue level at Cmax, percent of administered dose, Liver: 7.04 ± 0.61% of administered dose
  Tissue level at Cmax, percent of administered dose, Lung: 0.67 ± 0.16% of administered dose
  Tissue level at Cmax, percent of administered dose, Spleen: 0.03 ± 0.01% of administered dose
[6]; guinea pig, IM exposure
  brain-to-plasma ratio at later time points over ratio at Tmax: 3.2 times
[6]; guinea pig, IV 10 mg/kg, 0.08 hr (brain Cmax)
  brain/ plasma: 0.04 ± 0.001
[6]; guinea pig, IV 10 mg/kg, 0.25 hr
  brain/ plasma: 0.040 ±0.002
[6]; guinea pig, IV 10 mg/kg, 0.5 hr
  brain/ plasma: 0.03 ± 0.002
[6]; guinea pig, IV 10 mg/kg, 1 hr
  brain/ plasma: 0.02 ± 0.001
[6]; guinea pig, IV 10 mg/kg, 2 hr
  brain/ plasma: 0.03 ± 0.003
[6]; guinea pig, IV 10 mg/kg, 4 hr
  brain/ plasma: 0.05 ± 0.003
[6]; guinea pig, IV 10 mg/kg, 8 hr
  brain/ plasma: 0.09 ± 0.011
[6]; guinea pig, IV 10 mg/kg, 24 hr
  brain/ plasma: 0.11 ± 0.035
[6]; guinea pig, IV 10 mg/kg
  Tissue level at Cmax, percent of administered dose, Heart: 0.05 ± 0.01% of administered dose
  Tissue level at Cmax, percent of administered dose, Kidney: 5.19 ± 0.23% of administered dose
  Tissue level at Cmax, percent of administered dose, Liver: 8.76 ± 0.32% of administered dose
  Tissue level at Cmax, percent of administered dose, Lung: 0.45 ± 0.04% of administered dose
  Tissue level at Cmax, percent of administered dose, Spleen: 0.04 ± 0.01% of administered dose
[6]; guinea pig, IV 10 mg/kg, 10 mg/kg
  Tissue level at Cmax, percent of administered dose, Brain: 0.03% of administered dose and 0.03 ± 0.002% of administered dose
[6]; guinea pig, IV 50 mg/kg, 0.08 hr (brain Cmax)
  brain/ plasma: 0.09 ± 0.006
[6]; guinea pig, IV 50 mg/kg, 0.25 hr
  brain/ plasma: 0.08 ± 0.005
[6]; guinea pig, IV 50 mg/kg, 0.5 hr
  brain/ plasma: 0.05 ± 0.003
[6]; guinea pig, IV 50 mg/kg, 1 hr
  brain/ plasma: 0.03 ± 0.014
[6]; guinea pig, IV 50 mg/kg, 2 hr
  brain/ plasma: 0.03 ± 0.002
[6]; guinea pig, IV 50 mg/kg, 4 hr
  brain/ plasma: 0.07 ± 0.004
[6]; guinea pig, IV 50 mg/kg, 8 hr
  brain/ plasma: 0.07 ± 0.009
[6]; guinea pig, IV 50 mg/kg, 24 hr
  brain/ plasma: 0.18 ± 0.062
[6]; guinea pig, IV 50 mg/kg
  Tissue level at Cmax, percent of administered dose, Brain: 0.09 ± 0.01% of administered dose
  Tissue level at Cmax, percent of administered dose, Heart: 0.06 ± 0.01% of administered dose
  Tissue level at Cmax, percent of administered dose, Kidney: 5.16 ± 0.52% of administered dose
  Tissue level at Cmax, percent of administered dose, Liver: 8.60 ± 0.48% of administered dose
  Tissue level at Cmax, percent of administered dose, Lung: 0.95 ± 0.12% of administered dose
  Tissue level at Cmax, percent of administered dose, Spleen: 0.08 ± 0.01% of administered dose
[6]; guinea pig, IV 100 mg/kg, 0.08 hr (brain Cmax)
  brain/ plasma: 0.12 ± 0.006
[6]; guinea pig, IV 100 mg/kg, 0.25 hr
  brain/ plasma: 0.10 ± 0.008
[6]; guinea pig, IV 100 mg/kg, 0.5 hr
  brain/ plasma: 0.12 ± 0.007
[6]; guinea pig, IV 100 mg/kg, 1 hr
  brain/ plasma: 0.05 ± 0.001
[6]; guinea pig, IV 100 mg/kg, 2 hr
  brain/ plasma: 0.05 ± 0.005
[6]; guinea pig, IV 100 mg/kg, 4 hr
  brain/ plasma: 0.08 ± 0.005
[6]; guinea pig, IV 100 mg/kg, 8 hr
  brain/ plasma: 0.08 ± 0.010
[6]; guinea pig, IV 100 mg/kg, 24 hr
  brain/ plasma: 0.06 ± 0.008
[6]; guinea pig, IV 100 mg/kg
  Tissue level at Cmax, percent of administered dose, Brain: 0.11 ± 0.01% of administered dose
  Tissue level at Cmax, percent of administered dose, Heart: 0.05 ± 0.01% of administered dose
  Tissue level at Cmax, percent of administered dose, Kidney: 3.81 ± 0.42% of administered dose
  Tissue level at Cmax, percent of administered dose, Liver: 8.32 ± 0.42% of administered dose
  Tissue level at Cmax, percent of administered dose, Lung: 0.77 ± 0.04% of administered dose
  Tissue level at Cmax, percent of administered dose, Spleen: 0.07 ± 0.01% of administered dose
[6]; guinea pig, IV 200 mg/kg, 0.08 hr (brain Cmax)
  brain/ plasma: 0.18 ± 0.013
[6]; guinea pig, IV 200 mg/kg, 0.25 hr
  brain/ plasma: 0.19 ± 0.012
[6]; guinea pig, IV 200 mg/kg, 0.5 hr
  brain/ plasma: 0.27 ± 0.080
[6]; guinea pig, IV 200 mg/kg, 1 hr
  brain/ plasma: 0.15 ± 0.028
[6]; guinea pig, IV 200 mg/kg, 2 hr
  brain/ plasma: 0.08 ± 0.009
[6]; guinea pig, IV 200 mg/kg, 4 hr
  brain/ plasma: 0.08 ± 0.005
[6]; guinea pig, IV 200 mg/kg, 8 hr
  brain/ plasma: 0.12 ± 0.010
[6]; guinea pig, IV 200 mg/kg, 24 hr
  brain/ plasma: 0.22 ± 0.071
[6]; guinea pig, IV 200 mg/kg
  Tissue level at Cmax, percent of administered dose, Heart: 0.08 ± 0.01% of administered dose
  Tissue level at Cmax, percent of administered dose, Kidney: 3.65 ± 0.48% of administered dose
  Tissue level at Cmax, percent of administered dose, Liver: 5.25 ± 0.32% of administered dose
  Tissue level at Cmax, percent of administered dose, Lung: 0.85 ± 0.04% of administered dose
  Tissue level at Cmax, percent of administered dose, Spleen: 0.12 ± 0.01% of administered dose
[6]; guinea pig, IV 200 mg/kg, 200 mg/kg
  Tissue level at Cmax, percent of administered dose, Brain: 0.18% of administered dose and 0.18 ± 0.01% of administered dose
[6]; [13]
  time of tissue Cmax, all tissues except the liver: 5 to 15 min
  time of tissue Cmax, liver: 30 min
[6]; mean over the dose range, IV
  heart, percent of the administered dose at Cmax: 0.06%
[6]; tissues other than liver and kidney, IV
  all other tissues, percent of the administered dose at Cmax: less than 1%
